The IC50 is the midpoint of a concentration-inhibition curve.

Chain of hDGAT2 (Q96PD7 whole entry): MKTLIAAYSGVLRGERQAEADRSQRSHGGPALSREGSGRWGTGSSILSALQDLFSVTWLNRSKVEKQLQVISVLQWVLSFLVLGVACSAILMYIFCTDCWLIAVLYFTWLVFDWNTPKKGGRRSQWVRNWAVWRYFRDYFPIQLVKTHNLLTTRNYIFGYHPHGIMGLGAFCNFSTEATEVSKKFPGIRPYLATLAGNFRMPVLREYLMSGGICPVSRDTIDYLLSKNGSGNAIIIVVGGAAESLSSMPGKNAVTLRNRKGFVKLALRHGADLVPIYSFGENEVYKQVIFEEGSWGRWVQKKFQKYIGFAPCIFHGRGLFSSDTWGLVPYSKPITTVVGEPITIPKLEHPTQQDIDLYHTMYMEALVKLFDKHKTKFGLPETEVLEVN

The experiment has as its target hDGAT2 (Homo sapiens (Human), UniProt Q96PD7). Nature of the experiment: DGAT2 Enzymatic Activity Assay. It counts as biochemical. The conditions noted are these: hDGAT2 Sf-9 membrane prep; 25 μM diolein, 10 μM oleoyl-CoA; triolein product by LC/MS/MS; read-out: IC50 values for inhibition of DGAT2. On the procedure:
Sf-9 insect cells were maintained in Grace's insect cell culture medium with 10% heated-inactivated fetal bovine serum, 1% Pluronic F-68 and 0.14 μg/ml Kanamycine sulfate in Erlenmeyer flasks at 28° C. in a shaker incubator. After infection with untagged hDGAT2 baculovirus at multiplicity of infection (MOI) 0.1 for 48 hours, cells were harvested. Cell pellets were suspended in buffer containing 10 mM Tris-HCl (pH 7.5), 1 mM EDTA (pH 8.0), 250 mM sucrose and Complete Protease Inhibitor Cocktail (Roche Diagnostics Corp., Indianapolis, Ill.), and sonicated on ice. Membrane fractions were isolated by ultracentrifugation (100,000×g pellet), resuspended in the same buffer, and frozen (−80° C.) for later use. The protein concentration was determined with the BCA Protein Assay kit (Pierce Biotechnology Inc., Rockford, Ill.). Expression of protein levels was analyzed by immunoblotting with goat polyclonal DGAT2 antibody C-15 and donkey anti-goat IgG HRP (Santa Cruz Biotechnology, Inc., Santa Cruz, Calif.) followed by detection with ECL reagent (GE Healthcare, Piscataway, N.J.).
LC/MS/MS analyses were performed using Thermal Fisher's LX4-TSQ Vantage system. This system consists of an Agilent binary high-performance liquid chromatography (HPLC) pumps and a TSQ Vantage triple quadrupole MS/MS instrument. For each sample, 2 μL, samples from the top organic layer of in-plate liquid-liquid extraction were injected onto a Thermo Betabasic C4 column (2.1 mm×20 mm, 5 μm particle size). The samples were then eluted using the following conditions; mobile phase: methanol/water with 0.1% ammonium format=92/8 (v/v), flow rate: 1 mL/min, temperature: 25 C. Data was acquired in positive mode using a heated electrospray ionization (HESI) interface. The operational parameters for the TSQ Vantage MS/MS instrument were a spray voltage of 3000 V, capillary temperature of 280° C., vaporizer temperature 400° C., shealth gas 60 arbitrary unit, Aux gas 40 arbitrary units, S-lens 113 and collision gas 0.16 Pascals. […] (SRM) chromatograms of triolein (Q1: 902.9>Q3: 602.3) and internal standard (Q1: 902.9>Q3: 602.3) were collected for 40 sec. The peak area was integrated by Xcalibur Quan software. The ratio between the triolein generated in the reaction and spiked in internal standard were used to generate percentage inhibition and IC50 values. Compound percentage inhibition was calculated by the following formula: Inhibition %=1-[(compound response low control)/(high control low control)]×100%. Potent compounds were titrated and IC50 were calculated by 4 parameter sigmoidal curve fitting formula.
DGAT2 activity was determined by measuring the amount of enzymatic product triolein (1,2,3-Tri(cis-9-octadecenoyl)glycerol) using the membrane prep mentioned above. The assay was carried out in deep well 384 plates in a final volume of 40 μL at room temperature. The assay mixture contained the following: assay buffer (100 mM Tris.Cl, pH 7.0, 20 mM MgCl2, 5% ethanol), 25 μM of diolein, 10 μM of oleoyl-CoA and 10 ng/μL of DGAT2 membrane.
Turning to `COc1cccc(-c2ccc(CNC(=O)C3CC3c3ccccc3)c3c2CCN(c2ncccn2)C3)c1` (centres unmarked) [Example 110, N-((5-(3-methoxyphenyl)-2-(pyrimidin-2-yl)-1,2,3,4-tetrahydroisoquinolin-8-yl)methyl)-2-phenylcyclopropanecarboxamide], the IC50 came out at 3200 nM.
For `COc1cccc(-c2ccc(CNC(=O)[C@@H]3C[C@H]3c3ccccc3)c3c2CCN(C(=O)C(O)C(F)(F)F)C3)c1` (relative stereo) [Example 119, (trans)-N-((5-(3-methoxyphenyl)-2-(3,3,3-trifluoro-2-hydroxypropanoyl)-1,2,3,4-tetrahydroisoquinolin-8-yl)methyl)-2-phenylcyclopropanecarboxamide], the IC50 was determined as 1540 nM.
As to `COc1cccc(-c2ccc(CNC(=O)[C@@H]3C[C@H]3c3ccccc3)c3c2CCN(C(=O)NC2COC2)C3)c1` (relative stereo) [Example 74, 5-(3-methoxyphenyl)-N-(oxetan-3-yl)-8-(((trans)-2-phenylcyclopropanecarboxamido)methyl)-3,4-dihydroisoquinoline-2(1H)-carboxamide], the IC50 worked out at 89.8 nM.
Regarding `COc1ccc(CNC(=O)CN2CCc3c(-c4cccc(OC(F)(F)F)c4)ccc(CNC(=O)C4CC4c4nc(C)no4)c3C2)c(OC)c1` (centres unmarked) [Example 85, N-((2-(2-((2,4-dimethoxybenzyl)amino)-2-oxoethyl)-5-(3-(trifluoromethoxy)phenyl)-1,2,3,4-tetrahydroisoquinolin-8-yl)methyl)-2-(3-methyl-1,2,4-oxadiazol-5-yl)cyclopropanecarboxamide], the IC50 was found to be 1540 nM.
In the case of `Cc1noc([C@@H]2C[C@H]2C(=O)NCc2ccc(-c3cccc(C(F)(F)F)c3)c3c2CN(C(=O)Nc2ccon2)CC3)n1` (relative stereo) [Example 26, N-(isoxazol-3-yl)-8-(((trans)-2-(3-methyl-1,2,4-oxadiazol-5-yl)cyclopropanecarboxamido)methyl)-5-(3-(trifluoromethyl)phenyl)-3,4-dihydroisoquinoline-2(1H)-carboxamide], the IC50 is 126 nM.
On to `Cc1noc([C@@H]2C[C@H]2C(=O)NCc2ccc(-c3cccc(OC(F)(F)F)c3)c3c2CN(Cc2ccncn2)CC3)n1` (relative stereo) [Example 105, (trans)-2-(3-methyl-1,2,4-oxadiazol-5-yl)-N-((2-(pyrimidin-4-ylmethyl)-5-(3-(trifluoromethoxy)phenyl)-1,2,3,4-tetrahydroisoquinolin-8-yl)methyl)cyclopropanecarboxamide], for which the IC50 was 2610 nM.
On to `CC(C)(C)NC(=O)N1CCc2c(-c3cccc4c3CNC4=O)ccc(CNC(=O)[C@@H]3C[C@H]3c3ccccc3)c2C1` (relative stereo) [Example 44, N-(tert-butyl)-5-(1-oxoisoindolin-4-yl)-8-(((trans)-2-phenylcyclopropanecarboxamido)methyl)-3,4-dihydroisoquinoline-2(1H)-carboxamide], for which the IC50 was 7480 nM.
As to `COC(=O)c1cccc(-c2ccc(CNC(=O)[C@@H]3C[C@H]3c3ccccc3)c3c2CCN(C(=O)NC2(C)CCCC2)C3)c1` (relative stereo) [Example 55, methyl 3-(2-((1-methylcyclopentyl)carbamoyl)-8-(((trans)-2 phenylcyclopropanecarboxamido)methyl)-1,2,3,4-tetrahydroisoquinolin-5-yl) benzoate], the IC50 was 10 nM.
As for `CC(C)(C)NC(=O)N1CCc2c(-c3cccc(OC(F)(F)F)c3)ccc(CNC(=O)[C@H]3C[C@@H]3c3ccccc3)c2C1` (relative stereo) [Example 9, N-(tert-butyl)-8-(((trans)-2-phenylcyclopropanecarboxamido)methyl)-5-(3-(trifluoromethoxy)phenyl)-3,4-dihydroisoquinoline-2(1H)-carboxamide], the IC50 was 31 nM.
With `CC(C)(C)NC(=O)N1CCc2c(-c3cncc(CO)c3)ccc(CNC(=O)C3C[C@H]3c3ccccc3)c2C1` (stereo partly drawn) [Example 28, N-(tert-butyl)-5-(5-(hydroxymethyl)pyridin-3-yl)-8-(((trans)-2-phenylcyclopropanrcarboxamido)methyl)-3,4-dihydroisoquinoline-2(1H)-carboxamide], the IC50 worked out at 992 nM.
`Cc1cncc(-c2ccc(CNC(=O)[C@@H]3C[C@H]3c3ccccc3)c3c2CCN(C(=O)NC(C)(C)C)C3)c1` (relative stereo) [Example 8, N-(tert-butyl)-5-(5-methylpyridin-3-yl)-8-(((trans)-2-phenylcyclopropanecarboxamido)methyl)-3,4-dihydroisoquinoline-2(1H)-carboxamide]: the half-inhibitory concentration (IC50) amounted to 82.3 nM.
For the compound `COc1cccc(-c2ccc(CNC(=O)C3CC3c3ccccc3)c3c2CCN(S(C)(=O)=O)C3)c1` (centres unmarked) [Example 89, N-((5-(3-methoxyphenyl)-2-(methylsulfonyl)-1,2,3,4-tetrahydroisoquinolin-8-yl)methyl)-2-phenylcyclopropanecarboxamide], the IC50 is 2780 nM.
Regarding `Cc1noc([C@@H]2C[C@H]2C(=O)NCc2ccc(-c3cccc(C(F)(F)F)c3)c3c2CN(C(=O)Nc2cccnc2)CC3)n1` (relative stereo) [Example 6, 8-(((trans)-2-(3-methyl-1,2,4-oxadiazol-5-yl)cyclopropanecarboxamido)methyl)-N-(pyridin-3-yl)-5-(3-(trifluoromethyl)phenyl)-3,4-dihydroisoquinoline-2(1H)-carboxamide], the IC50 was found to be 101 nM.
Take `CC(C)(C)NC(=O)N1CCc2c(-c3cccc(NS(C)(=O)=O)c3)ccc(CNC(=O)[C@@H]3C[C@H]3c3ccccc3)c2C1` (relative stereo) [Example 39, N-(tert-butyl)-5-(3-(methylsulfonamido)phenyl)-8-(((trans)-2-phenylcyclopropanecarboxamido)methyl)-3,4-dihydroisoquinoline-2(1H)-carboxamide]: the IC50 stood at 832 nM.
In the case of `COc1cccc(-c2ccc(CNC(=O)[C@@H]3C[C@H]3c3ccccc3)c3c2CCN(C(=O)Nc2ccccn2)C3)c1` (relative stereo) [Example 15, 5-(3-methoxyphenyl)-8-(((trans)-2-phenylcyclopropanecarboxamido)methyl)-N-(pyridin-2-yl)-3,4-dihydroisoquinoline-2(1H)-carboxamide], the IC50 was 3110 nM.
With `Cc1noc(C2CC2C(=O)NCc2ccc(-c3cccc(OC(F)(F)F)c3)c3c2CN(CC(N)=O)CC3)n1` (centres unmarked) [Example 83, N-((2-(2-amino-2-oxoethyl)-5-(3-(trifluoromethoxy)phenyl)-1,2,3,4-tetrahydroisoquinolin-8-yl)methyl)-2-(3-methyl-1,2,4-oxadiazol-5-yl)cyclopropanecarboxamide] the figure was 1240 nM; with `COC(=O)c1cccc(-c2ccc(CNC(=O)C3CC3c3ccccc3)c3c2CCN(Cc2ccc(F)cc2)C3)c1` (centres unmarked) [Example 98, methyl 3-(2-(4-fluorobenzyl)-8-((2-phenylcyclopropanecarboxamido)methyl)-1,2,3,4-tetrahydroisoquinolin-5-yl)benzoate], 2680 nM; with `CCOC(=O)CCCNC(=O)N1CCc2c(-c3cccc(OC)c3)ccc(CNC(=O)[C@@H]3C[C@H]3c3ccccc3)c2C1` (relative stereo) [Example 59, ethyl 4-(5-(3-methoxyphenyl)-8-(((trans)-2-phenylcyclopropanecarboxamido)methyl)-1,2,3,4-tetrahydroisoquinoline-2-carboxamido)butanoate], 227 nM.
Take `COc1cccc(-c2ccc(CNC(=O)[C@@H]3C[C@H]3c3ccccc3)c3c2CCN(C(=O)Nc2cccnc2)C3)c1` (relative stereo) [Example 24, 5-(3-methoxyphenyl)-8-(((trans)-2-phenylcyclopropanecarboxamido)methyl)-N-(pyridin-3-yl)-3,4-dihydroisoquinoline-2(1H)-carboxamide]: the IC50 is 238 nM.
On to `COc1cccc(-c2ccc(CNC(=O)C3CC3c3ccccc3)c3c2CCN(C(=O)CC(C)(C)C)C3)c1` (centres unmarked) [Example 114, N-((2-(3,3-dimethylbutanoyl)-5-(3-methoxyphenyl)-1,2,3,4-tetrahydroisoquinolin-8-yl)methyl)-2-phenylcyclopropanecarboxamide], for which the IC50 was found to be 714 nM.

The record behind these values is patent US10568876B2, “Tetrahydroisoquinoline derivatives useful as inhibitors of diacylglyceride O-acyltransferase 2” (Merck Sharp & Dohme Corp., priority 2014, dated 2020).
